Reference: patent US7084127B2, “C2,5′-disubstituted and N6, C2,5′-trisubstituted adenosine derivatives and their different uses” (Universiteit Leiden, priority 2001, dated 2006)

Experiments:
[1] = target: T1, human adenosine A1 receptors expressed in CHO cells (Homo sapiens, UniProt P30542); assay: cAMP assay A1 (inhibition of forskolin-induced cAMP production); format: cell-based; conditions: compared to reference full agonist CPA (10 μM) in A1 CHO cells; tested at ±100 × Ki; ±SEM, n = 3; forskolin 10 μM
T1 construct: expressed in transfected cells; host or cells: CHO cells
T1 sequence (P30542 1-326): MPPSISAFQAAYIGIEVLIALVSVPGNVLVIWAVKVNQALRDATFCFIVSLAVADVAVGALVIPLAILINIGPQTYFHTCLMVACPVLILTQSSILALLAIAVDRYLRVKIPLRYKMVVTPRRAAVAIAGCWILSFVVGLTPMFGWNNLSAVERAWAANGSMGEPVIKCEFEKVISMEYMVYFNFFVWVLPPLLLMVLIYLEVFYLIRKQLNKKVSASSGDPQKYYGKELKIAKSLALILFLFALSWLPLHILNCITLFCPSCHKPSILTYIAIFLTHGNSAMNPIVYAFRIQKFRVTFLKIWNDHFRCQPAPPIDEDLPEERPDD
Method: cAMP assay A1 and A3 CHO cells expressing either the human adenosine A1 or A3 receptor were grown overnight as a monolayer in 24 wells tissue culture plates (400 μl/well; 2×10^5cells/well). cAMP generation was performed in Dulbecco's Modified Eagles Medium (DMEM)/N-2-hydroxyethylpiperazin-N′-2-ethansulfonic acid (HEPES) buffer (0.60 g HEPES/50 ml DMEM pH 7.4). […] After incubation for 40 minutes at 37° C., 100 μl forskolin (final concentration 10 μM) was added. After 15 minutes at 37° C., the reaction was terminated by removing the medium and adding 200 μL 0.1 M HCl. Wells were stored at −20° C. until assay
The amounts of cAMP were determined after a protocol with cAMP binding protein^28 with the following minor modifications. As a buffer was used 150 mM K2HPO4/10 mM EDTA/0.2% Bovine Serum Albumine (BSA) at pH 7.5. Samples (20 μl+30 μl 0.1 M HCl) were incubated for at least 2.5 hours at 0° C. before filtration over Whatman GF/B filters. Filters were additionally rinsed with 2×2 ml TrisHCl buffer (pH 7.4, 4° C.). Filters were counted in Packard Emulsifier Safe scintillation fluid (3.5 ml) after 24 hours of extraction. […]

[2] = target: T2, A2A receptor in rat striatum (Rattus norvegicus, UniProt P30543); assay: Radioligand binding, displacement of [3H]ZM241385 from rat striatal membranes; conditions: [3H]ZM241385, rat striatal membranes;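 also: displacement assays run in the absence of GTP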
T2 construct: the A2A receptor in rat striatum; from tissue; host or cells: rat striatum
T2 sequence (P30543 whole entry): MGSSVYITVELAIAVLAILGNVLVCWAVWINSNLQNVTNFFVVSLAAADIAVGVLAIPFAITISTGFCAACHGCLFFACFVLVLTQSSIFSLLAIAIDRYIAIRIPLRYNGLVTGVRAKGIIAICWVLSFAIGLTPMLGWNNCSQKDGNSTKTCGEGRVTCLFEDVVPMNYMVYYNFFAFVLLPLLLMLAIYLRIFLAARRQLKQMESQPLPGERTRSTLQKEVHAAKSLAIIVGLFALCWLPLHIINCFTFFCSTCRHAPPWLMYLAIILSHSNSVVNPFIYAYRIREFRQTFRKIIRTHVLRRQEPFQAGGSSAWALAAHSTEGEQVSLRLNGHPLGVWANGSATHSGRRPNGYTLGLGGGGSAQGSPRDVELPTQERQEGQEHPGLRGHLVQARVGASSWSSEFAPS
Method: Incubations were carried out for 1 hr at 37° C. and were terminated by rapid filtration over Whatman GF/B filters, using a Brandell cell harvester (Brandell, Gaithersburg, Md.). Tubes were washed three times with 3 ml of buffer. Radioactivity was determined in a Beckman 5500B γ-counter. Nonspecific binding was determined in the presence of 10^−5 M R-PIA.
All compounds were tested in radioligand binding assays to determine their affinities for the adenosine A1 receptor in rat brain cortex, the A2A receptor in rat striatum and the human A3 receptor as expressed in HEK 293 cells (Table 2). […] AB-MECA, an A3 receptor agonist, was also used. Displacement experiments were performed in the absence of GTP.

Nc1nc(Cl)nc2c1ncn2[C@@H]1O[C@H](COC2CC2)[C@@H](O)[C@H]1O [Compound 81, 2-Chloro-5′-O-cyclopropyladenosine]
% inhib. A1 of forskolin-induced cAMP [1]: 49 ± 9% | Ki [2]: 885 ± 89 nM | melting point: 122 to 124 °C

CCOC[C@H]1O[C@@H](n2cnc3c(N)nc(Cl)nc32)[C@H](O)[C@@H]1O [Compound 75, 2-Chloro-5′-O-ethyladenosine]
% inhib. A1 of forskolin-induced cAMP [1]: 67 ± 7% | Ki [2]: 659 ± 168 nM | melting point: 117 to 119 °C

CCOC[C@H]1O[C@@H](n2cnc3c(N)ncnc32)[C@H](O)[C@@H]1O [Compound 72, 5′-O-Ethyladenosine]
% inhib. A1 of forskolin-induced cAMP [1]: 57 ± 11% | Ki [2]: 415 ± 69 nM | melting point: 110 to 112 °C

COC[C@H]1O[C@@H](n2cnc3c(N)ncnc32)[C@H](O)[C@@H]1O [Compound 66, 5′-O-methyladenosine]
% inhib. A1 of forskolin-induced cAMP [1]: 75 ± 3% | Ki [2]: 261 ± 65 nM | melting point: 112 to 114 °C

COC[C@H]1O[C@@H](n2cnc3c(N)nc(Cl)nc32)[C@H](O)[C@@H]1O [Compound 69, 2-Chloro-5′-O-methyladenosine]
% inhib. A1 of forskolin-induced cAMP [1]: 78 ± 4% | Ki [2]: 284 ± 55 nM | melting point: 200 to 202 °C
